Test results reported in PubChem BioAssay AID504828 (Johns Hopkins Ion Channel Center, 2011).

Each compound was assayed against Inward rectifier potassium channel 2 (Mus musculus) (UniProt P35561) (assay: Kir2.1 current blockers by manual electrophysiology, SAR follow-up, orthogonal assay, manual whole-cell patch clamp, extended SAR, set 1 (AID 504828)). Details: Kir2.1-expressing cells, -100 mV.
Inward rectifier potassium channel 2 (Mus musculus), sequence (P35561 whole entry, looked up): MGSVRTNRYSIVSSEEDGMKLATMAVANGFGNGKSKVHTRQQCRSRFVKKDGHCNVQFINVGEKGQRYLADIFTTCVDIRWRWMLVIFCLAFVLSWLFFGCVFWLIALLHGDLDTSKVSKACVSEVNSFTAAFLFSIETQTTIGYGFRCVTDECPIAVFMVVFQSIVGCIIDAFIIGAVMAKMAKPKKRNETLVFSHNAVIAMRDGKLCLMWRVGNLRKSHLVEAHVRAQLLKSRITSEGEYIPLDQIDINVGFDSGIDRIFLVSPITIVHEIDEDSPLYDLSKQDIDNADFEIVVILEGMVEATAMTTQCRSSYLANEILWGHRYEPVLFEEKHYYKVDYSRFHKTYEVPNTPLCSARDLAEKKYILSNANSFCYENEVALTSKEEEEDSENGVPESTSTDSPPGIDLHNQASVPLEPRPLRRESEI

| Structure (SMILES) | IC50 [µM] |
| --- | --- |
| CC(O)CNCCCOc1cccc(Oc2ccccc2)c1 (stereo unspecified) | 4.12 |
| Cc1noc(C)c1COC(=O)CCN1c2ccccc2Sc2ccccc21 | 3.21 |
| CC(NS(=O)(=O)c1ccc(Br)cc1)c1ccccc1 (stereo unspecified) | 8.82 |
| O=S(=O)(c1ccc(F)cc1)N1CCCc2ccccc21 | 11.1 |

Next, values leading:

| IC50 [µM] | Structure (SMILES) |
| --- | --- |
| 16.6 | Cc1ccc2nc(NCc3ccccc3)[nH]c2c1 |
| 5.94 | Cc1ccc(C)c(OCCCNCc2ccccc2)c1 |
